Data on six compounds can be found in patent publication US5714666A, “Measurement of intracellular calcium using bioluminescent apoaequorin expressed in mammalian cells” (Children's Hospital of Philadelphia, priority 1995, dated 1998).

Holding throughout (type): cell-based
Assay [1] concerns human 293 cells. In words: Aequorin expression assay in human 293 cells transfected with a single plasmid (pDPaqneo3, pDP5ht2neo3 or pDP3 vector). How it is done: Human 293 cells were cultured on 100 mm tissue culture dish in minimum essential medium (MEM) containing 10% charcoal treated fetal bovine serum, 2 mM L-glutamine, 100 units penicillin G sodium per ml, 100 units streptomycin sulfate per ml. DNA mediated transfection was performed when these cells grew to 70% to 80% confluence on the plates. These transfected cells were incubated in 3% CO2, 37° C. incubator overnight. Cells were replenished with fresh medium and transferred to 5% CO2, 37° C. incubator the next day [C. […] (17).
Two days after the transfection, cells were washed twice with phosphate buffered saline (PBS). Cells were then harvested by ice-cold PBS and rubber policeman. After centrifugation at 1,600 r.p.m. for 5 minutes, the pellet was dissolved in Ca^++ -free AqH buffer (120 mM NaCl, 4.8 mM KCl, 1.2 mM KH2 PO4, 25 mM Hepes, 0.1% bovine serum albumin, pH 7.4) at a concentration about 10 million cells per 1 ml solution. Tubes containing cells were wrapped with aluminum foil. Coelenterazine was a generous gift from Dr. Kishi, Harvard University and Dr. Shimomura, Marine Biological Laboratory. It was stored at -70° C., dissolved in methanol immediately before use, and kept in the dark at all times. […] Aequorin was reconstituted incubating these apoaequorin cDNA transfected cells with 10 μM coelenterazine in the dark room temperature for 30 minutes. Unincorporated coelenterazine was washed away after incubation by adding 25 ml Ca^++ -free AqH buffer to each sample and centrifugating at 1,600 r.p.m. Samples were centrifuged again and pellets of 293 cells were dissolved in Ca^++ -free AqH buffer. The final concentration of cells was approximately 10 million per 1 ml solution. For light emission measurement, 100 μl of cell sample was mixed with equal volume of appropriate reagent in a 2 ml glass tube immediately before inserted into the luminometer (Berthold Biolumat LB 9500). Counting of light emission started immediately after the glass tube insertion. The number of photons emitted during the first 30 seconds was integrated by the luminometer and shown on the screen. The time course of light emission was recorded on a chart recorder and a Mackintosh computer using the MacLab Chart/4 V3.1.3 program for further analysis.

In assay [2] the target is T1, 5-HT2 receptor (Rattus norvegicus, UniProt P14842).
T1 construct: expressed in transfected cells; host or cells: human 293 cells, transiently co-transfected with pDPaqneo3 (apoaequorin) and pDP5ht2neo3
Briefly: Aequorin light emission assay in human 293 cells co-transfected with apoaequorin cDNA and 5-HT2 cDNA. To be noted: for Antagonist inhibition of light emission in response to serotonin: 50 μM antagonist, 30 seconds before 10 μM serotonin, FIG. 2. How it is done: DNA from the apoaequorin plasmid (pDPaqneo3) and the 5-HT2 plasmid (pDPSht2neo3) were mixed in equal portions in the transfection solution immediately before transfection. Transfection was performed as described in Example 2.
Two days after the transfection, cells were washed twice with phosphate buffered saline (PBS). Cells were then harvested by ice-cold PBS and rubber policeman. After centrifugation at 1,600 r.p.m. for 5 minutes, the pellet was dissolved in Ca^++ -free AqH buffer (120 mM NaCl, 4.8 mM KCl, 1.2 mM KH2 PO4, 25 mM Hepes, 0.1% bovine serum albumin, pH 7.4) at a concentration about 10 million cells per 1 ml solution. Tubes containing cells were wrapped with aluminum foil. Coelenterazine was a generous gift from Dr. Kishi, Harvard University and Dr. Shimomura, Marine Biological Laboratory. It was stored at -70° C., dissolved in methanol immediately before use, and kept in the dark at all times. The concentration of coelenterazine was estimated by the measurement of absorbance at 434 nanometer [the molar absorptivity434 =8,900 M^-1·cm^-1; K. Hori, H. Charbonneau, R. C. Hart, M. J. Cormier, Proc. Natl. Acad. Sci. U.S.A. 74, 4285 (1977)]. Aequorin was reconstituted incubating these apoaequorin cDNA transfected cells with 10 μM coelenterazine in the dark room temperature for 30 minutes. Unincorporated coelenterazine was washed away after incubation by adding 25 ml Ca^++ -free AqH buffer to each sample and centrifugating at 1,600 r.p.m. Samples were centrifuged again and pellets of 293 cells were dissolved in Ca^++ -free AqH buffer. The final concentration of cells was approximately 10 million per 1 ml solution. For light emission measurement, 100 μl of cell sample was mixed with equal volume of appropriate reagent in a 2 ml glass tube immediately before inserted into the luminometer (Berthold Biolumat LB 9500). Counting of light emission started immediately after the glass tube insertion. The number of photons emitted during the first 30 seconds was integrated by the luminometer and shown on the screen. The time course of light emission was recorded on a chart recorder and a Mackintosh computer using the MacLab Chart/4 V3.1.3 program for further analysis.
Intracellular calcium concentration was measured as described in Example 15.

The test system of assay [3] is mouse primary neuron culture. Briefly: Photon emission of primary neuron cultures from apoaequorin transgenic mice. How it is done:
A transgenic mouse was mated with non-transgenic mouse B6XSJLF1 female mouse. The whole brains were removed from 19 day old mouse embryos and used to make primary neuronal cultures and incubated in minimum essential medium containing 500 μg genticin per ml. After ten days, cells were removed from plates, mixed with colenterazine and tested for aequorin expression using an expression assay.
Embryos resulting from mating transgenic mouse no.
Thereafter 10 μl (1 mg/ml PBS) Br-A23187 and 0.5 mM CaCl2 were added to the cell culture. The drug Br-A23187 opens calcium channels.

T1 sequence (P14842 whole entry): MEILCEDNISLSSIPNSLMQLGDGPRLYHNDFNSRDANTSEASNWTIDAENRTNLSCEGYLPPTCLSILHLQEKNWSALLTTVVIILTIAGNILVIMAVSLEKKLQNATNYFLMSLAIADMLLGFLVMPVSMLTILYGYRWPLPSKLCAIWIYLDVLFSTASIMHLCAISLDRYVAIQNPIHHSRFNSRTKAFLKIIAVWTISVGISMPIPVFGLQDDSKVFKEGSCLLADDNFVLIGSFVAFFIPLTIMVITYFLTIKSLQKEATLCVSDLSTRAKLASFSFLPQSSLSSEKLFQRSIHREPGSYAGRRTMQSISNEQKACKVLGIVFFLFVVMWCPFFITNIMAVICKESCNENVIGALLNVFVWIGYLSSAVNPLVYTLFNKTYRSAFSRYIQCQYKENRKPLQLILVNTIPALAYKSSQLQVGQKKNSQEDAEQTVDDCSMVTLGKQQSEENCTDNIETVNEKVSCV

On to `O=C(O)CN(CCN(CC(=O)O)CC(=O)O)CC(=O)O` [EDTA], for which, in assay [1] (EDTA added to buffer, pDPaqneo3-transfected cells (data not shown)), the “Effect on Ca++ induced photon emission” value is listed as “prevented the increase in photon emission”.
As to `O=C(c1ccc(F)cc1)C1CCN(CCn2c(=O)[nH]c3ccccc3c2=O)CC1` [ketanserin], in assay [2], the “Antagonist inhibition of light emission in response to serotonin” value is “inhibited”.
In the case of `NCCc1c[nH]c2ccc(O)cc12` [serotonin], the “Photon emission upon addition of serotonin” value in assay [2] (cells co-transfected with pDPaqneo3 and pDP5ht2neo3) is recorded as “dramatic rise in photon emission”. The Detected photons is 79,840 ± 3,342 photons in assay [2] (cells transfected with pDPaqneo3 & pDP5ht2neo3, 500 nM, first 30 seconds); 1,599 photons in assay [1] (cells transfected with pDP3 vector only, 500 nM); 1,308 ± 339 photons in assay [1] (cells transfected with pDP5ht2neo3 only, 500 nM); 6,150 photons in assay [1] (cells transfected with pDPaqneo3 only, 500 nM). For the same compound, in assay [2] (saturating concentration (500 μM)), the “Photon emissions per cell” value is no more than 40 photons per cell. Further, in assay [1] (cells transfected with pDPaqneo3 only, pDP5ht2neo3 only or pDP3 vector only), the “Photon emission upon serotonin treatment” value is on record as “no increase of photo emission”.
As for Br-A23187, the “Photon emission (excitotoxicity)” value in assay [3] (10 μl (1 mg/ml PBS) Br-A23187 with 0.5 mM CaCl2, culture from transgenic mouse no. 20, FIG. 6A) is reported as “increased excitotoxicity”; in assay [3] (Br-A23187 with 0.5 mM CaCl2 and 50 mM EGTA, culture from transgenic mouse no. 20, FIG. 6B), “increased excitotoxicity”.
Turning to `CN(C)CCCSc1ccccc1NC(=O)/C=C/c1ccccc1` [cinanserin], in assay [2], the “Antagonist inhibition of light emission in response to serotonin” value is listed as “inhibited”.
For the compound `[Ca+2].[Cl-].[Cl-]` [Ca^++, CaCl2], the Detected photons in assay [1] (cells transfected with pDP3 vector only, 50 nM Ca++) was 1,607 photons; in assay [1] (cells transfected with pDP5ht2neo3 only, 50 nM Ca++) it was 1,346 ± 167 photons; in assay [1] (cells transfected with pDPaqneo3 only, 50 nM Ca++) it was 293,209 photons. The “Photons detected upon addition of Ca++” value in assay [1] (cells transfected with pDPaqneo3 and incubated with coelenterazine cofactor) was “rapid and dramatic increase in the photons detected”. Further, the “Emission of photons upon addition of Ca++” value in assay [1] (cells transfected with plasmids not containing apoaequorin cDNA and untransfected cells) is “no rise in the emission of photons”. Besides, the “Light emission upon addition of Ca++” value in assay [1] (pDPaqneo3 transfected cells not incubated with coelenterazine cofactor) was “no increase of light emission”. Also, the “Photon emission (excitotoxicity)” value was “no excitotoxic effect” in assay [3] (100 μl of 100 mM CaCl2, control non-transgenic neuronal culture no. 6, FIG. 5B) and “increase in cell excitotoxicity” in assay [3] (100 μl of 100 mM CaCl2, culture from transgenic mouse no. 2, FIG. 5A).
